Laboratory results as given in paper PMC12292302, “Revealing the Improving Effect and Molecular Mechanism of L-Clausenamide in Combating the Acute Lung Injury: Insights from Network Pharmacology, Molecular Docking, and In Vitro Validation” (Biology, 2025).

Target: AKT1 (RAC-alpha serine/threonine-protein kinase) (Homo sapiens, UniProt P31749)
Test: SPR (Biacore 8K+, CM7 chip, purchased AKT1 protein MCE HY-P74421)
Assay type: binding

Chain of AKT1 (RAC-alpha serine/threonine-protein kinase) (P31749 whole entry): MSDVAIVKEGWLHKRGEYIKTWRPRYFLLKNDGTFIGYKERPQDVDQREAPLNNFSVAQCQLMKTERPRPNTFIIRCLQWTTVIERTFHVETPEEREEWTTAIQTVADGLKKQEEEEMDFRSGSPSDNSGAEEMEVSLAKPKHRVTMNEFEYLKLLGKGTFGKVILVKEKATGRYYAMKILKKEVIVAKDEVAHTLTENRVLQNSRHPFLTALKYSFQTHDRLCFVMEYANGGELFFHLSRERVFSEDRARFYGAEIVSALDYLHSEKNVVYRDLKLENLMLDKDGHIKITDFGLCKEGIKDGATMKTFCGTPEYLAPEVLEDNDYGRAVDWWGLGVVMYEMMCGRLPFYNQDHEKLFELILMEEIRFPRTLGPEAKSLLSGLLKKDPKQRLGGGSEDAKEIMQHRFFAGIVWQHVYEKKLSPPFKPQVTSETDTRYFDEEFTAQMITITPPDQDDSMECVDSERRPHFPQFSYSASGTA

CN1C(=O)[C@@H](O)[C@H](c2ccccc2)[C@@H]1[C@@H](O)c1ccccc1 [L-Clausenamide]
Kd: 10.3 µM
